Experimental data reported in ChEMBL document CHEMBL1127849, “Benzisoxazole- and benzisothiazole-3-carboxamides as potential atypical antipsychotic agents” (J Med Chem, 1994).

Key:
[1] = target: T1, 5-hydroxytryptamine receptor 1A (Rattus norvegicus, UniProt P19327); experiment: In vitro affinity towards 5-hydroxytryptamine 1A receptor using [3H]8-OH-DPAT as radioligand in hippocampus; type: tissue-based
T1 sequence (P19327 whole entry): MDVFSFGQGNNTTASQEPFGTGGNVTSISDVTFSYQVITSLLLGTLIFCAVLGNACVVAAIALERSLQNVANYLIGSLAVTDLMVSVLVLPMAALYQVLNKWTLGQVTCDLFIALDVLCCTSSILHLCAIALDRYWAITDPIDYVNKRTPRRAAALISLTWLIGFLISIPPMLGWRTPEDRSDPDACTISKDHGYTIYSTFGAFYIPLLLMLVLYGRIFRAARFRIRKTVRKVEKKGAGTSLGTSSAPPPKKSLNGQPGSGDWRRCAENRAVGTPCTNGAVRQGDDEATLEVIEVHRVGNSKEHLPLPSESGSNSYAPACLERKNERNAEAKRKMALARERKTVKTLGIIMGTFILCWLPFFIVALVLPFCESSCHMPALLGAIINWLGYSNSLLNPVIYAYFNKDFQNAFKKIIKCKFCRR

[2] = target: T2, Adrenergic receptor alpha-1 (Rattus norvegicus, UniProt P15823+P23944+P43140); experiment: Its affinity towards alpha-1 receptor using [3H]WB-4101 as radioligand in whole brain minus cerebellum; type: tissue-based
T2 sequence (P15823 whole entry): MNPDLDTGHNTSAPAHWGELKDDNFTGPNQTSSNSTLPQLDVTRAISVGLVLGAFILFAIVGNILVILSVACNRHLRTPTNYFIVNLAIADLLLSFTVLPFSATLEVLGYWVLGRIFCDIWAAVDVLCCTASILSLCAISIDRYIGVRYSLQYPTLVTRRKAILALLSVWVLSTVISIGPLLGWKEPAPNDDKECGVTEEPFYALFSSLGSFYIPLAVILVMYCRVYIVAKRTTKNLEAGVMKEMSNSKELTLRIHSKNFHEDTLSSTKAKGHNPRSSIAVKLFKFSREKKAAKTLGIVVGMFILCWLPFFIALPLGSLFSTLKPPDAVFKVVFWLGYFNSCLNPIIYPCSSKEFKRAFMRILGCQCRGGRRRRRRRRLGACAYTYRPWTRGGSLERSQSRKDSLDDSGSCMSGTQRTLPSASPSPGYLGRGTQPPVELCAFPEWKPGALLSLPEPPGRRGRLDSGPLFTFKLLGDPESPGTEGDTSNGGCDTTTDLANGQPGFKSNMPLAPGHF
T2 sequence (P23944 whole entry): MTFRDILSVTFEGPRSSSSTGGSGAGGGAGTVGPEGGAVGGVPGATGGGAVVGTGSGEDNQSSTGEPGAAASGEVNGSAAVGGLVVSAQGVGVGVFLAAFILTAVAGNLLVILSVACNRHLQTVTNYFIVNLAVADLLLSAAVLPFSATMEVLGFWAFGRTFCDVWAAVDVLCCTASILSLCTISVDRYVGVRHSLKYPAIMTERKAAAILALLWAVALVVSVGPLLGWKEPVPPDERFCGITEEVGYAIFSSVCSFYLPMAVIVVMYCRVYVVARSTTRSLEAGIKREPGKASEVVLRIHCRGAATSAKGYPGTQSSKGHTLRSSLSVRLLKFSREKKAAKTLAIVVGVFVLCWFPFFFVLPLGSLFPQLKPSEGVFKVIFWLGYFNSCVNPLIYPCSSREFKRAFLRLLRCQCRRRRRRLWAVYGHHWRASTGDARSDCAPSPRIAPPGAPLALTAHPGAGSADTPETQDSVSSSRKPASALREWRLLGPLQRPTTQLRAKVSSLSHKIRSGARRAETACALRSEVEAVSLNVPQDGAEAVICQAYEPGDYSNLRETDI
T2 sequence (P43140 whole entry): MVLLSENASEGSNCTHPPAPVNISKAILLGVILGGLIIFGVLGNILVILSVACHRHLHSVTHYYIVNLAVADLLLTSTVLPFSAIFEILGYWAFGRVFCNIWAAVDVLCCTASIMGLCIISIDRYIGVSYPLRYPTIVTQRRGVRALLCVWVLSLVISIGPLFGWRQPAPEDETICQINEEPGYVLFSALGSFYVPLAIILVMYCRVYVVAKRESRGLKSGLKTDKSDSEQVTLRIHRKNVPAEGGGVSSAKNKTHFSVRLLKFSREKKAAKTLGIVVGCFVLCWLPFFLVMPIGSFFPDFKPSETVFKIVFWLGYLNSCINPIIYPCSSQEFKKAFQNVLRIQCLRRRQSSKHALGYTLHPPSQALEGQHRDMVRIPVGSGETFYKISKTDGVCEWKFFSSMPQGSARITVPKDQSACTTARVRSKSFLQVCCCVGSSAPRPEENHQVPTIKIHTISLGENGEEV

[3] = test system: Mus musculus; experiment: In vivo effective dose for inhibition of apomorphine-induced climbing in mice after intraperitoneal administration at a dose 20 mg/kg; type: functional; settings: ip
[4] = target: 5-hydroxytryptamine receptor 2A (Rattus norvegicus, UniProt P14842); experiment: In vitro affinity towards 5-hydroxytryptamine 2A receptor using [3H]spiroperidol as radioligand in cortex
Chain of 5-hydroxytryptamine receptor 2A (P14842 whole entry): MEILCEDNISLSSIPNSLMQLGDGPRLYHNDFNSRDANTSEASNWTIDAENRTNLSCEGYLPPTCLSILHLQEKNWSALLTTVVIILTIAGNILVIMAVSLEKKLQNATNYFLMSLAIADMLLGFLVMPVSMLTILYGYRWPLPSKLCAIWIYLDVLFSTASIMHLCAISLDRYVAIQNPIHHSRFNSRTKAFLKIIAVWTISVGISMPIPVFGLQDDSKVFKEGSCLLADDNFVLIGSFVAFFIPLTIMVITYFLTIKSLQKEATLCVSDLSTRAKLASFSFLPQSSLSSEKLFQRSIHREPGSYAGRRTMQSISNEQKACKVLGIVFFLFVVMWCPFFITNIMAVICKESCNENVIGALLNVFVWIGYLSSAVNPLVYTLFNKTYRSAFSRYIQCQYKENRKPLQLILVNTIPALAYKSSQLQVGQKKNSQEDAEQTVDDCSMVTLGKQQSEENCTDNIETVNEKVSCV

[5] = test system: Rattus norvegicus; experiment: Compound was evaluated in vivo for its antipsychotic activity for inhibition of apomorphine-induced stereotypy in rat after intraperitoneal administration of a dose of 40 mg/kg; type: functional; settings: ip
[6] = test system: Rattus norvegicus; experiment: Compound was evaluated in vivo for its antipsychotic activity for inhibition of apomorphine-induced stereotypy in rat after intraperitoneal administration at a dose of 40 mg/kg; type: functional; settings: ip
[7] = test system: Rattus norvegicus; experiment: Compound was evaluated in vivo for its antipsychotic activity for inhibition of apomorphine-induced stereotypy in rat; type: functional
[8] = test system: Rattus norvegicus; experiment: Compound was evaluated in vivo for its antipsychotic activity for inhibition of apomorphine-induced stereotypy in rat after intraperitoneal administration of a dose of 40 mg/kg value represented as percent inhibition; type: functional; settings: ip
[9] = test system: Rattus norvegicus; experiment: Compound was evaluated in vivo for its antipsychotic activity for inhibition of apomorphine-induced stereotypy in rat after intraperitoneal administration of a dose of 13 mg/kg; type: functional; settings: ip
[10] = test system: Rattus norvegicus; experiment: Compound evaluated in vivo for its antipsychotic activity for inhibition of apomorphine-induced stereotypy in rat after intraperitoneal administration of a dose of 13 mg/kg; type: functional; settings: ip
[11] = test system: Rattus norvegicus; experiment: Compound was evaluated in vivo for its antipsychotic activity for inhibition of apomorphine-induced stereotypy in rat after intraperitoneal administration of a dose of 10 mg/kg; type: functional; settings: ip
[12] = test system: Mus musculus; experiment: In vivo for its effective dose for inhibition of apomorphine-induced climbing in mice after intraperitoneal administration at a dose 20 mg/kg; type: functional; settings: ip

SMILES	IC50 [1]	IC50 [2]	IC50 [4]	ED50 [3]	also measured
COc1ccccc1N1CCN(CCCN(C)C(=O)c2nsc3ccccc23)CC1	149 nM	10.7 nM	1650 nM	> 20 mg/kg	
O=C(NCCN1CCN(c2csc3cc(F)ccc23)CC1)c1noc2ccccc12	1040 nM	> 10000 nM	309 nM		inhibition in vivo at 40 mg/kg [5]: 17%
O=C(NCCN1CCC(n2c(O)nc3ccccc32)CC1)c1nsc2ccccc12		39.8 nM	641 nM	> 20 mg/kg	
CN(CCN1CCC(C(=O)c2ccc(F)cc2)CC1)C(=O)c1nsc2ccccc12	2500 nM	75.3 nM	51 nM	8 mg/kg	
COc1ccccc1N1CCN(CCNC(=O)c2nsc3ccccc23)CC1	3.9 nM	4.1 nM	550 nM		ED50 [7]: 51.8 mg/kg
CN1CCN(C2=Nc3cc(Cl)ccc3Nc3ccccc32)CC1 [CLOZAPINE]					inhibition in vivo at 40 mg/kg [5]: 33%
CN(CCCN1CCC(C(=O)c2ccc(F)cc2)CC1)C(=O)c1noc2ccccc12	6650 nM	43 nM	123 nM	> 20 mg/kg	
O=C(NCCN1CCN(c2nsc3ccccc23)CC1)c1nsc2ccccc12	98 nM	19 nM	475 nM	> 20 mg/kg	
COc1ccccc1N1CCN(CCCNC(=O)c2nsc3ccccc23)CC1	84.7 nM	18.3 nM	3110 nM	13 mg/kg	inhibition in vivo at 40 mg/kg [5]: 17%
CN(CCN1CCC(c2noc3cc(F)ccc23)CC1)C(=O)c1noc2ccccc12	440 nM	104 nM	17.6 nM	1.3 mg/kg	inhibition in vivo at 13 mg/kg [9]: 33%
Cc1nc2n(c(=O)c1CCN1CCC(c3noc4cc(F)ccc34)CC1)CCCC2 [RISPERIDONE]				0.062 mg/kg	ED50 [7]: 3.2 mg/kg
CN(CCCCN1CCC(C(=O)c2ccc(F)cc2)CC1)C(=O)c1nsc2ccccc12	339 nM	3.2 nM	30.2 nM	8.2 mg/kg	inhibition in vivo at 40 mg/kg [5]: 60%
CN(CCN1CCC(c2noc3cc(F)ccc23)CC1)C(=O)c1nsc2ccccc12	820 nM	9.4 nM	32.8 nM	1.7 mg/kg	inhibition in vivo at 13 mg/kg [10]: 50%
CN(CCCCN1CCN(c2csc3cc(F)ccc23)CC1)C(=O)c1noc2ccccc12	128 nM	3.2 nM	188 nM		ED50 [7]: 52 mg/kg
O=C(NCCN1CCC(c2noc3cc(Cl)ccc23)CC1)c1nsc2ccccc12	3450 nM	239 nM	215 nM	> 20 mg/kg	
CN(CCCCN1CCC(c2noc3cc(F)ccc23)CC1)C(=O)c1nsc2ccccc12	160 nM	174 nM	13 nM		inhibition in vivo at 10 mg/kg [11]: 67%
CN1CCN(CCNC(=O)c2nsc3ccccc23)CC1	> 10000 nM	> 10000 nM	> 10000 nM	> 20 mg/kg	
CN(CCCCN1CCN(c2nsc3ccccc23)CC1)C(=O)c1nsc2ccccc12	18.6 nM	5.8 nM	13 nM		ED50 [12]: 2.49 mg/kg; ED50 [7]: 39.2 mg/kg
CN(CCCCN1CCN(c2csc3cc(F)ccc23)CC1)C(=O)c1nsc2ccccc12	366 nM	6.3 nM	232 nM		ED50 [7]: 33 mg/kg
O=C(NCCN1CCC(C(=O)c2ccc(F)cc2)CC1)c1nsc2ccccc12	920 nM	15.7 nM	17 nM	3.64 mg/kg	ED50 [7]: 25.7 mg/kg

Second part, led by results:

IC50 [1]	IC50 [2]	IC50 [4]	SMILES	ED50 [3]	also measured
51.6 nM	81.5 nM	726 nM	O=C(NCCN1CCN(c2cccc(Cl)c2)CC1)c1nsc2ccccc12	> 20 mg/kg	
2300 nM	124 nM	290 nM	CC(C)N(CCCN1CCC(C(=O)c2ccc(F)cc2)CC1)C(=O)c1noc2ccccc12	20.2 mg/kg	
18 nM	5 nM	201 nM	O=C(NCCCCN1CCN(c2nsc3ccccc23)CC1)c1nsc2ccccc12		inhibition in vivo at 40 mg/kg [6]: 17%
3720 nM	93.8 nM	115 nM	O=C(NCCCN1CCC(c2noc3cc(Cl)ccc23)CC1)c1nsc2ccccc12	> 20 mg/kg	
2.3 nM	6.4 nM	724 nM	COc1ccccc1N1CCN(CCCCNC(=O)c2nsc3ccccc23)CC1	7.24 mg/kg	inhibition in vivo at 40 mg/kg [8]: 83%
4670 nM	6.11 nM	68 nM	CN(CCCN1CCC(C(=O)c2ccc(F)cc2)CC1)C(=O)c1nsc2ccccc12	7.7 mg/kg	
1880 nM	2570 nM		O=C(NCCN1CCN(Cc2ccccc2)CC1)c1nsc2ccccc12	> 20 mg/kg	
4 nM	3.3 nM		COc1ccccc1N1CCN(CCCCN(C)C(=O)c2nsc3ccccc23)CC1	9.61 mg/kg	inhibition in vivo at 40 mg/kg [5]: 100%
	5.5 nM	29.7 nM	CC(C)N(CCN1CCC(c2noc3cc(F)ccc23)CC1)C(=O)c1noc2ccccc12	1.3 mg/kg	
1790 nM	108.2 nM	27 nM	CN(CCN1CCC(C(=O)c2ccc(F)cc2)CC1)C(=O)c1noc2ccccc12	13.4 mg/kg	
21 nM	2.1 nM	391 nM	COc1ccccc1N1CCN(CCNC(=O)c2noc3ccccc23)CC1	> 20 mg/kg	
